ChEMBL document CHEMBL1144356 (J Med Chem, 2005)

Legend:
Canis familiaris [1] = assay: Effect on cholesterol lowering in male Beagle dog at an oral dose of 0.1 mkd for 15 days
Canis familiaris [2] = assay: Effect on cholesterol lowering in male Beagle dog at an oral dose of 0.01 mkd for 15 days
[3] = molecular target: T1, Peroxisome proliferator-activated receptor gamma (Homo sapiens, UniProt P37231); assay: Effective concentration against human PPAR-gamma in Gal4 transactivation assay; 30% response at 3 uM; format: functional
T1 sequence (P37231 whole entry): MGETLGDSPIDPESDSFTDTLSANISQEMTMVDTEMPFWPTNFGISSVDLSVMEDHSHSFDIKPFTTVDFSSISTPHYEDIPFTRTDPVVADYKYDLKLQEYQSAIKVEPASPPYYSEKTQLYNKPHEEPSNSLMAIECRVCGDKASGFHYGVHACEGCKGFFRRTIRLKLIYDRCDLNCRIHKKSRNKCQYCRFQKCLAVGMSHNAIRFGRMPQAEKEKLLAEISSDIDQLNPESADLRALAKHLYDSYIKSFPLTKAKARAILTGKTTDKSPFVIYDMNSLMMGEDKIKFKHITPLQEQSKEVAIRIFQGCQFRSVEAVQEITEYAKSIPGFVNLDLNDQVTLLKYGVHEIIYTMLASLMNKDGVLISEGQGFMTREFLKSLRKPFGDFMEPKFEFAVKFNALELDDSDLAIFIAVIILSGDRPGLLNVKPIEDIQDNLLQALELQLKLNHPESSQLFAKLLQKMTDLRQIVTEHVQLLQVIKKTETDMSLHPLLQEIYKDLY

[4] = molecular target: T2, Peroxisome proliferator-activated receptor alpha (Homo sapiens, UniProt Q07869); assay: Effective concentration against human PPAR-alpha in Gal4 transactivation assay; format: functional
T2 sequence (Q07869 whole entry): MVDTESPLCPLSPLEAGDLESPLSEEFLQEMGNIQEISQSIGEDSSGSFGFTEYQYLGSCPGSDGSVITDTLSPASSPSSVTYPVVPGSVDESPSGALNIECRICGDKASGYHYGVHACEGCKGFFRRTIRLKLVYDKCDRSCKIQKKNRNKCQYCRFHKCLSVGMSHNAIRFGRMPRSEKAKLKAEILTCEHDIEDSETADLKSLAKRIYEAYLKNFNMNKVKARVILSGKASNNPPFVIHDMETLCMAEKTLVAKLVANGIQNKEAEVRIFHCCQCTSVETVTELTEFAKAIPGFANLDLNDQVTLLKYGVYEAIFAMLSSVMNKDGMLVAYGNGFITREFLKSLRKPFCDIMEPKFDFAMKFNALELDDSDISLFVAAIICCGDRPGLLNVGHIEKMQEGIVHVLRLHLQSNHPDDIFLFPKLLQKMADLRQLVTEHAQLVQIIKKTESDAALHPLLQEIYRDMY

Cricetinae gen. sp. [5] = assay: Effect at an oral dose of 1 mg/kg/day for 14 days on serum triglyceride level of hamster; format: functional, Cricetulus griseus
Canis familiaris [6] = assay: Effect on cholesterol lowering in male Beagle dog at an oral dose of 0.03 mkd for 10 days
Cricetinae gen. sp. [7] = assay: Effect at an oral dose of 1 mg/kg/day for 14 days on serum cholesterol level of hamster; format: functional, Cricetulus griseus
Canis familiaris [8] = assay: Effect on cholesterol lowering in male Beagle dog at an oral dose of 0.03 mkd for 7 days

EC50 [3]: > 3000 nM
EC50 [4]: 2 nM
SMILES: CC[C@@]1(C(=O)O)Cc2cc(OCCCOc3ccc(OC(F)(F)F)cc3Cl)ccc2O1
TC (Canis familiaris [1]): -22.1%
TC (Canis familiaris [2]): -21%
TG (Cricetinae gen. sp. [5]): -43.65%
TC (Canis familiaris [6]): -17.9%
TC (Cricetinae gen. sp. [7]): -42%
TC (Canis familiaris [8]): -11.2%
